Results as given in patent US8569336B2, “Compounds for the treatment of inflammatory disorders” (priority 2008, dated 2013).

target: T1, purified catalytic domain of recombinant human TACE (rhTACEc) (Homo sapiens, UniProt P78536, N452Q/S266A); test: TACE kinetic assay: cleavage of internally quenched peptide substrate TNF-FRET 2 (Ki); type: biochemical; conditions: TNF-FRET 2 substrate, read-out: Ki
T1 construct: 6xHis (C); made in house; host or cells: baculovirus/Hi5 insect cells
T1 sequence (P78536 215-477 S266A/N452Q): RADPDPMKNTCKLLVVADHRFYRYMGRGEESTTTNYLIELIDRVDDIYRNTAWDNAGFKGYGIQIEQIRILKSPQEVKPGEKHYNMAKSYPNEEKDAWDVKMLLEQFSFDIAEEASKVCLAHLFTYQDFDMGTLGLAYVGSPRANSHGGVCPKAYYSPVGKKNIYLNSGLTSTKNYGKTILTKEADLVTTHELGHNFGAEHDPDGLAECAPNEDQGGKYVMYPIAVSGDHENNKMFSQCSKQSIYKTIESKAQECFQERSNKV

| SMILES | Ki [nM] |
| --- | --- |
| COc1ccc2c(c1)C(=O)N(C[C@@]1(c3cc4nc(N(CCN(C)C)c5cn[nH]c5)ccc4o3)NC(=O)NC1=O)C2 [Compound 1704] | 0.86 |
| COc1ccc2c(c1)C(=O)N(C[C@@]1(c3cc4c(s3)CCN(C)C4)NC(=O)NC1=O)C2 [Compound 2265] | 8.77 |
| COc1ccc2c(c1)C(=O)N(C[C@@]1(c3cc4nc(Nc5ccc(-c6cn[nH]c6)cn5)ccc4o3)NC(=O)NC1=O)C2 [Compound 1732] | 1.91 |
| COc1ccc2c(c1)C(=O)N(C[C@@]1(c3cc4cc(C(=O)NCCCC[C@H](NC(=O)CCCC[C@@H]5SCC6NC(=O)NC65)C(=O)O)c(F)cc4o3)NC(=O)NC1=O)C2 (stereo partly drawn) [Compound 1283] | 0.39 |
| CCN(CC)CCNC(=O)c1ccc2cc([C@]3(CN4Cc5ccc(OC)cc5C4=O)NC(=O)NC3=O)oc2c1 [Compound 2419] | 0.79 |
| COc1ccc2c(c1)C(=O)N(C[C@@]1(c3cc4cc(-c5cc(O)nn5C)cnc4o3)NC(=O)NC1=O)C2 [Compound 2276] | 0.562 |
| COc1ccc2c(c1)C(=O)N(C[C@@]1(c3cc4nc(-c5cc(O)cc(-c6ccncc6)c5)ccc4o3)NC(=O)NC1=O)C2 [Compound 1308] | 1.39 |
| COc1ccc2c(c1)C(=O)N(C[C@@]1(c3cc4ccc(C(=O)NC[C@@H](C)O)cc4o3)NC(=O)NC1=O)C2 [Compound 2416] | 0.56 |
| COCCNC(=O)c1ccc2cc([C@]3(CN4Cc5ccc(OC)cc5C4=O)NC(=O)NC3=O)oc2c1 [Compound 2413] | 0.6 |
| COc1ccc2c(c1)C(=O)N(C[C@@]1(c3cc4cc(-c5ccc(N(C)C)nc5)ccc4o3)NC(=O)NC1=O)C2 [Compound 1184] | 0.85 |

More lines, now with the values ahead:

| Ki [nM] | SMILES |
| --- | --- |
| 0.72 | COCCNC(=O)c1cnc2cc([C@]3(CN4Cc5ccc(OC)cc5C4=O)NC(=O)NC3=O)oc2c1 [Compound 2467] |
| 1.4 | COc1ccc2c(c1Br)C(=O)N(C[C@@]1(c3cc4ncccc4o3)NC(=O)NC1=O)C2 [Compound 1738] |
| 0.267 | COc1ccc2c(c1)C(=O)N(C[C@@]1(c3cc4cc(CN(C)C)ccc4o3)NC(=O)NC1=O)C2 [Compound 2176] |
| 1.57 | COc1ccc2c(c1F)C(=O)N(C[C@@]1(c3cc4cncnc4o3)NC(=O)NC1=O)C2 [Compound 303] |
| 2.49 | COc1ccc2c(c1)C(=O)N(C[C@@]1(c3cc4nc(N(CCO)Cc5ccccn5)ccc4o3)NC(=O)NC1=O)C2 [Compound 1701] |
| 0.444 | COc1ccc2c(c1F)C(=O)N(C[C@@]1(c3ccc(-c4cccnc4)o3)NC(=O)NC1=O)C2 [Compound 314] |
| 0.374 | COc1ccc2c(c1)C(=O)N(C[C@@]1(c3cc4nc(-c5cnc(N(C)C)nc5)ccc4o3)NC(=O)NC1=O)C2 [Compound 2152] |
| 0.661 | COc1ccc2c(c1)C(=O)N(C[C@@]1(c3cc4cc(-c5cnn(C)c5)ncc4o3)NC(=O)NC1=O)C2 [Compound 306] |
| 0.33 | CCOC(=O)c1ccc2cc([C@]3(CN4Cc5ccc(OC)cc5C4=O)NC(=O)NC3=O)oc2c1 [Compound 2409] |
| 0.51 | COc1ccc2c(c1)C(=O)N(C[C@@]1(c3cc4ccc(C(=O)NC[C@H](C)O)cc4o3)NC(=O)NC1=O)C2 [Compound 2415] |
| 0.86 | CCN1C[C@@H]2C[C@H]1CN2c1ccc2oc([C@]3(CN4Cc5ccc(OC)c(F)c5C4=O)NC(=O)NC3=O)cc2n1 [Compound 1292] |

system: TNF-α production from human whole blood; test: Inhibition of TNF-α production from human whole blood (hWBA), LPS stimulated, ELISA; type: cell-based; conditions: Homo sapiens, 3.5 h, human whole blood diluted 1:1, LPS stimulated, 3.5 h, TNF-α by ELISA; read-out: hWBA (IC50)

| SMILES | IC50 [nM] |
| --- | --- |
| COc1ccc2c(c1)C(=O)N(C[C@@]1(c3cc4c(s3)CCN(C)C4)NC(=O)NC1=O)C2 [Compound 2265] | 1440 |
| COc1ccc2c(c1)C(=O)N(C[C@@]1(c3cc4cc(C(=O)NCCCC[C@H](NC(=O)CCCC[C@@H]5SCC6NC(=O)NC65)C(=O)O)c(F)cc4o3)NC(=O)NC1=O)C2 (stereo partly drawn) [Compound 1283] | 3300 |
| COc1ccc2c(c1)C(=O)N(C[C@@]1(c3cc4cc(-c5cc(O)nn5C)cnc4o3)NC(=O)NC1=O)C2 [Compound 2276] | 222 |
| COc1ccc2c(c1)C(=O)N(C[C@@]1(c3cc4cc(-c5ccc(N(C)C)nc5)ccc4o3)NC(=O)NC1=O)C2 [Compound 1184] | 2710 |

Second part, the molecule after the results:

| IC50 [nM] | SMILES |
| --- | --- |
| 1040 | COc1ccc2c(c1)C(=O)N(C[C@@]1(c3cc4cc(CN(C)C)ccc4o3)NC(=O)NC1=O)C2 [Compound 2176] |
| 675 | COc1ccc2c(c1)C(=O)N(C[C@@]1(c3cc4nc(-c5cnc(N(C)C)nc5)ccc4o3)NC(=O)NC1=O)C2 [Compound 2152] |
| 177 | CCN1C[C@@H]2C[C@H]1CN2c1ccc2oc([C@]3(CN4Cc5ccc(OC)c(F)c5C4=O)NC(=O)NC3=O)cc2n1 [Compound 1292] |

same assay, conditions: Homo sapiens, LPS-stimulated human whole blood, TNF-α by ELISA; read-out: hWBA (IC50)

| SMILES | IC50 [nM] |
| --- | --- |
| COc1ccc2c(c1)C(=O)N(C[C@@]1(c3cc4nc(N(CCN(C)C)c5cn[nH]c5)ccc4o3)NC(=O)NC1=O)C2 [Compound 1704] | 274 |
| COc1ccc2c(c1)C(=O)N(C[C@@]1(c3cc4nc(Nc5ccc(-c6cn[nH]c6)cn5)ccc4o3)NC(=O)NC1=O)C2 [Compound 1732] | 333 |
| COc1ccc2c(c1)C(=O)N(C[C@@]1(c3cc4nc(-c5cc(O)cc(-c6ccncc6)c5)ccc4o3)NC(=O)NC1=O)C2 [Compound 1308] | 2950 |

The next lines start with the values.

| IC50 [nM] | SMILES |
| --- | --- |
| > 10000 | COc1ccc2c(c1Br)C(=O)N(C[C@@]1(c3cc4ncccc4o3)NC(=O)NC1=O)C2 [Compound 1738] |
| 198 | COc1ccc2c(c1F)C(=O)N(C[C@@]1(c3cc4cncnc4o3)NC(=O)NC1=O)C2 [Compound 303] |
| 2210 | COc1ccc2c(c1)C(=O)N(C[C@@]1(c3cc4nc(N(CCO)Cc5ccccn5)ccc4o3)NC(=O)NC1=O)C2 [Compound 1701] |
| 536 | COc1ccc2c(c1F)C(=O)N(C[C@@]1(c3ccc(-c4cccnc4)o3)NC(=O)NC1=O)C2 [Compound 314] |
| 658 | COc1ccc2c(c1)C(=O)N(C[C@@]1(c3cc4cc(-c5cnn(C)c5)ncc4o3)NC(=O)NC1=O)C2 [Compound 306] |

same assay, conditions: Homo sapiens, human whole blood diluted 1:1, LPS stimulated, TNF-α by ELISA; read-out: hWBA (IC50)

| SMILES | IC50 [nM] |
| --- | --- |
| CCN(CC)CCNC(=O)c1ccc2cc([C@]3(CN4Cc5ccc(OC)cc5C4=O)NC(=O)NC3=O)oc2c1 [Compound 2419] | 332 |
| COc1ccc2c(c1)C(=O)N(C[C@@]1(c3cc4ccc(C(=O)NC[C@@H](C)O)cc4o3)NC(=O)NC1=O)C2 [Compound 2416] | 891 |
| COCCNC(=O)c1ccc2cc([C@]3(CN4Cc5ccc(OC)cc5C4=O)NC(=O)NC3=O)oc2c1 [Compound 2413] | 300 |

Second part, the molecule after the results:

| IC50 [nM] | SMILES |
| --- | --- |
| 657 | COCCNC(=O)c1cnc2cc([C@]3(CN4Cc5ccc(OC)cc5C4=O)NC(=O)NC3=O)oc2c1 [Compound 2467] |
| 1870 | CCOC(=O)c1ccc2cc([C@]3(CN4Cc5ccc(OC)cc5C4=O)NC(=O)NC3=O)oc2c1 [Compound 2409] |
| 452 | COc1ccc2c(c1)C(=O)N(C[C@@]1(c3cc4ccc(C(=O)NC[C@H](C)O)cc4o3)NC(=O)NC1=O)C2 [Compound 2415] |
